SMILES strings stand for the structures. Results filed as inconclusive are left out. The source made the active and inactive calls.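 Rule for the calls: active = compound lowering the normal-ribosome reporter at least twice as much as the humanized-ribosome reporter, growth loss under a set limit; inconclusive = no clear call, values can overlap the other calls; inactive = the rest.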 Where only a bound is given, the exact number is not on record here.

The subject of assay [1] is E. coli WT GFP strain growth, fluorescence, 24 h. The assay is described as follows: E. coli growth inhibition, wild-type GFP versus h24 humanized RFP strain, dose response, h24 mutant RFP vs wild-type GFP, cherry-pick (AID 977628).
The subject of assay [2] is E. coli mixed WT/h24 culture total growth, OD600, 24 h. The description is as above.

Take `NC(=O)C1CCN(c2cc(Cl)ccc2[N+](=O)[O-])CC1`: the AC50 is > 100 µM (inactive) in assay [1] and above 100 µM in assay [2].

Regarding `COc1ccc(NC(=O)CN(c2ccccc2OC)S(=O)(=O)c2cccs2)cc1Cl`, the AC50 is > 100 µM (inactive) in assay [1] and above 100 µM in assay [2].

Turning to `COc1ccc(C)cc1NC(=O)c1nn(C)cc1Br`, the AC50 was > 100 µM (inactive) in assay [1] and above 100 µM in assay [2].

For the compound `O=C(Nc1cccc(S(=O)(=O)N2CCCCC2)c1)c1ccc(Cl)nc1`, the results for the AC50 in assay [1] and in assay [2] were > 100 µM (inactive) and above 100 µM, respectively.

As to `CC1(C(=O)NS(=O)(=O)c2cccc(Cl)c2)CCN1C(=O)C1(c2ccc(Cl)cc2)CCC1` (configuration not stated), the AC50 in assay [1] is > 100 µM (inactive); in assay [2], above 100 µM.

As to `COc1cc(NC(=O)CSCc2ccc(Cl)cc2Cl)c(C(=O)O)cc1OC`, the AC50 is > 100 µM (inactive) in assay [1] and above 100 µM in assay [2].

Consider `Cc1ccc(CNC(=O)c2ccc(Br)o2)cc1`, for which the AC50 in assay [1] was > 100 µM (inactive); in assay [2], above 100 µM.

`CC(C)(C)c1ccc2c(c1)C(c1ccc3c(c1)OCO3)CC(=O)O2` (configuration not stated): the values for the AC50 in assay [1] and in assay [2] were > 100 µM (inactive) and above 100 µM, respectively.

Take `Cc1cc(C(=O)COC(=O)c2ccc(Br)o2)c(C)n1C`: the AC50 in assay [1] is > 100 µM (inactive); in assay [2], 42.5 µM.

Take `COc1ccc(NC(=O)CCS(=O)(=O)c2ccccc2Cl)cc1S(=O)(=O)Nc1ccc(Cl)cc1`: the AC50 in assay [1] was > 100 µM (inactive); in assay [2], above 100 µM.

For `Cc1nc([N+](=O)[O-])c(Br)n1CC(=O)c1ccc(F)cc1`, the AC50 in assay [1] is > 100 µM (inactive); in assay [2], above 100 µM.

Regarding `O=C(COC(=O)C12CC3CC(CC(O)(C3)C1)C2)NCCc1ccc(Cl)cc1`, the AC50 in assay [1] was > 100 µM (inactive); in assay [2], above 100 µM.

`CN1C(=O)c2cccc3c(S(=O)(=O)NCCc4ccccc4)ccc1c23`: the results for the AC50 in assay [1] and in assay [2] were > 100 µM (inactive) and above 100 µM, respectively.

For the compound `Cc1onc(-c2ccccc2Cl)c1C(=O)N[C@@H](C)c1ccccc1`, the AC50 was > 100 µM (inactive) in assay [1] and above 100 µM in assay [2].

Consider `O=C(Cc1cccc(NC(=O)C2CCCN(C(=O)CCc3ccccc3)C2)c1)Nc1cccc(C(=O)N2CCCC2)c1` (configuration not stated), for which the AC50 is > 100 µM (inactive) in assay [1] and above 100 µM in assay [2].

Consider `O=c1c2ccccc2cnn1Cc1n[nH]c(=S)n1C1CC2CCC1C2` (configuration not stated), for which the results for the AC50 in assay [1] and in assay [2] were > 100 µM (inactive) and above 100 µM, respectively.

In the case of `Cc1nnn(C23CC4CC(CC(CC(=O)Nc5ccc(C)c(C)c5)(C4)C2)C3)n1`, the AC50 in assay [1] was > 100 µM (inactive); in assay [2], above 100 µM.

In the case of `CN(C)Cc1nc2ccccc2c(=O)n1Cc1nc(-c2cccc([N+](=O)[O-])c2)cs1`, the values for the AC50 in assay [1] and in assay [2] were > 100 µM (inactive) and above 100 µM, respectively.

For the compound `CC(=O)Nc1ccc(-c2ccnc3c2CC(C)(C(=O)Nc2ccc4c(c2)OCO4)O3)cc1` (configuration not stated), the figures for the AC50 in assay [1] and in assay [2] were > 100 µM (inactive) and above 100 µM, respectively.

Regarding `Cc1cc(NC(=O)CSc2nccn2-c2cccc(C)c2C)no1`, the AC50 in assay [1] was > 100 µM (inactive); in assay [2], above 100 µM.

In the case of `Nc1ncncc1-c1ccc(Cl)cc1`, the AC50 in assay [1] was > 100 µM (inactive); in assay [2] it was above 100 µM.

As for `Cc1cc(CNC(=O)COc2ccc(C)c(C)c2)c2ccccc2n1`, the figures for the AC50 in assay [1] and in assay [2] were > 100 µM (inactive) and 39 µM, respectively.

Regarding `Nc1[nH]c(C(=O)c2ccccc2)c(-c2ccc(Br)cc2)c1C(=O)c1cccs1`, the AC50 was > 100 µM (inactive) in assay [1] and above 100 µM in assay [2].

`O=C(CSc1nc2ccccc2[nH]1)Nc1cccc(S(=O)(=O)N2CCOCC2)c1`: the AC50 was > 100 µM (inactive) in assay [1] and 47.9 µM in assay [2].

Turning to `CN(CCOc1ccccc1)C(=O)c1ccc(OC2CCN(C(=O)C3CC3)CC2)cc1`, the AC50 is > 100 µM (inactive) in assay [1] and above 100 µM in assay [2].

`C=C1SC(Nc2c(C)cc(C)cc2C)=NC12CCCCC2`: the figures for the AC50 in assay [1] and in assay [2] were > 100 µM (inactive) and 22.8 µM, respectively.

For `Cc1c(C(=O)N(Cc2ccc(F)cc2)C2CCS(=O)(=O)C2)oc2ccccc12` (configuration not stated), the AC50 was > 100 µM (inactive) in assay [1] and above 100 µM in assay [2].

As for `Cc1ccc(NC(=O)CN(C)S(=O)(=O)c2cccc3cccnc23)cc1F`, the values for the AC50 in assay [1] and in assay [2] were > 100 µM (inactive) and above 100 µM, respectively.

As for `C=CCn1c(-c2sc(-c3ccccc3)nc2C)n[nH]c1=S`, the AC50 in assay [1] is > 100 µM (inactive); in assay [2], above 100 µM.

As for `COC(=O)c1ccc2nc(-c3ccc(OC)c(OC)c3)c(Cc3ccc(C)cc3)n2c1`, the AC50 in assay [1] is > 100 µM (inactive); in assay [2] it was above 100 µM.

For `N#CCC(=O)Nc1ccc(C(=O)OCC(=O)Nc2ccc3ccccc3c2)cc1`, the AC50 in assay [1] was > 100 µM (inactive); in assay [2], above 100 µM.

For `CC(=O)c1c(N2CCOCC2)nc2ccc(Cl)cc2c1-c1ccccc1`, the AC50 in assay [1] was > 100 µM (inactive); in assay [2], above 100 µM.

For the compound `Cc1cccc(Nc2nc(-c3ccc(F)cc3)cs2)n1`, the AC50 in assay [1] is > 100 µM (inactive); in assay [2] it was above 100 µM.

Turning to `O=C(Cn1c(CO)nc2ccccc21)NCCc1ccc(F)cc1`, the values for the AC50 in assay [1] and in assay [2] were > 100 µM (inactive) and above 100 µM, respectively.

As for `Cc1ccc(N(CC(O)Cn2nc(C)cc2C)S(=O)(=O)c2ccc3ccccc3c2)cc1` (configuration not stated), the AC50 was > 100 µM (inactive) in assay [1] and 49.4 µM in assay [2].

In the case of `CCN(CC)S(=O)(=O)c1ccc(O)c(C(=O)OCC(=O)NC23CC4CC(CC(C4)C2)C3)c1`, the AC50 in assay [1] is > 100 µM (inactive); in assay [2], above 100 µM.

On to `CCCc1nc2oc3c(NCCCN(C)C)ncnc3c2c2c1CCCC2`, for which the AC50 is > 100 µM (inactive) in assay [1] and above 100 µM in assay [2].

`CCC(=O)Nc1nc2c(OC)ccc(OC)c2s1`: the AC50 in assay [1] is > 100 µM (inactive); in assay [2], above 100 µM.

As to `O=C(c1ccc(-c2ccccc2)c(F)c1)C1CCCN(CCCn2cccn2)C1` (configuration not stated), the AC50 in assay [1] is > 100 µM (inactive); in assay [2], above 100 µM.

For the compound `CCOC(=O)c1c(C)nsc1NCc1ccccc1`, the values for the AC50 in assay [1] and in assay [2] were > 100 µM (inactive) and 30.9 µM, respectively.

Take `Cc1cc(C(N)=O)nn1-c1c(Cl)cc(Cl)cc1Cl`: the AC50 in assay [1] is > 100 µM (inactive); in assay [2] it was above 100 µM.

As for `COC(=O)c1c(C)oc(C)c1S(=O)(=O)NC(c1ccccc1)c1ccccc1`, the results for the AC50 in assay [1] and in assay [2] were > 100 µM (inactive) and 44.4 µM, respectively.

As for `Cc1ccc2nc(N(CCN(C)C)C(=O)C3CCN(S(=O)(=O)c4cccs4)CC3)sc2c1`, the AC50 in assay [1] is > 100 µM (inactive); in assay [2], above 100 µM.

`C=CCn1c(CCSCc2ccc(OC)c(C)c2)n[nH]c1=S`: the values for the AC50 in assay [1] and in assay [2] were > 100 µM (inactive) and 51.2 µM, respectively.

Take `CC(CCc1ccccc1)NC(=O)CNC(=O)COc1ccccc1` (configuration not stated): the AC50 was > 100 µM (inactive) in assay [1] and above 100 µM in assay [2].

Turning to `COc1ccc(OC)c(-c2csc(NC(=O)C3COc4ccccc4O3)n2)c1` (configuration not stated), the AC50 is > 100 µM (inactive) in assay [1] and above 100 µM in assay [2].

The term AC50 denotes the concentration at which the activity in the assay is half-maximal.

The values are drawn from PubChem BioAssay AID977628 (Broad Institute, 2014).
